Legend:
Experiment in all cases: relative viability (nuclei count vs DMSO), 5 days (fraction); higher = more cells survive
[1] = compound: COc1cc2ncn(-c3cc(OCc4ccccc4C(F)(F)F)c(C(N)=O)s3)c2cc1OC + Cc1cc(Nc2cc(N3CCN(C)CC3)nc(Sc3ccc(NC(=O)C4CC4)cc3)n2)n[nH]1 [Tozasertib] (partner 0.1 µM)
Method in brief: (§1)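 A single step with final 0.05% Triton X-100, 1% formaldehyde and 1 ug/ml Hoechst fixed the cells and stained nuclei 5 days after treatment. Lung cancer cell lines in 1536-well plates had been treated by pin tool the day after seeding with one drug alone or a fixed anchor-drug dose plus five library-drug doses (not always all listed) in √10 steps, and nuclei were counted on 4× images. Relative viability is the ratio of nuclei in treated wells to nuclei in vehicle wells, taken as the median of duplicate plates.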

[2] = compound: COc1cc2ncn(-c3cc(OCc4ccccc4C(F)(F)F)c(C(N)=O)s3)c2cc1OC + NC(=O)Nc1cc(-c2cccc(F)c2)sc1C(=O)N[C@H]1CCCNC1 [AZD7762] (partner 0.2 µM)
Method in brief: as §1

[3] = compound: COc1cc2ncn(-c3cc(OCc4ccccc4C(F)(F)F)c(C(N)=O)s3)c2cc1OC + CC(=O)Nc1cccc(-n2c(=O)n(C3CC3)c(=O)c3c(Nc4ccc(I)cc4F)n(C)c(=O)c(C)c32)c1 [Trametinib] (partner 0.02 µM)
Method in brief: as §1

[4] = compound: COc1cc2ncn(-c3cc(OCc4ccccc4C(F)(F)F)c(C(N)=O)s3)c2cc1OC
Method in brief: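 Viability was defined as treated-well nuclei divided by vehicle-well nuclei, with the median taken over replicate plates. Cells from lung cancer lines sat overnight at 37 °C in 1536-well plates, received five √10-spaced library-drug doses by pinning on vehicle-anchored plates, and grew 5 days without medium change before one-step fixation, permeabilisation and Hoechst staining, 4× imaging and MetaXpress nuclear counts. Only plates with control CV under 25% and at least one doubling were kept.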

Cell Line	relative viability ([1]; first compound 0.05 µM)	relative viability ([1]; first compound 0.1581 µM)	relative viability ([1]; first compound 0.5 µM)	relative viability ([1]; first compound 1.581 µM)	relative viability ([1]; first compound 5 µM)	relative viability ([2]; first compound 0.05 µM)	relative viability ([2]; first compound 0.1581 µM)	relative viability ([2]; first compound 0.5 µM)	relative viability ([2]; first compound 1.581 µM)	relative viability ([2]; first compound 5 µM)	relative viability ([3]; first compound 0.05 µM)	relative viability ([3]; first compound 0.1581 µM)	relative viability ([3]; first compound 0.5 µM)	relative viability ([3]; first compound 1.581 µM)	relative viability ([3]; first compound 5 µM)	relative viability ([4]; 0.05 µM)	relative viability ([4]; 0.1581 µM)	relative viability ([4]; 0.5 µM)	relative viability ([4]; 1.581 µM)	relative viability ([4]; 5 µM)
LK-2	0.177	0.174	0.163	0.162	0.195	0.386	0.366	0.202	0.115	0.126	0.719	0.457	0.283	0.151	0.145	1.07	1.03	0.446	0.222	0.211
NCI-H1993	0.581	0.613	0.566	0.637	0.661	0.921	0.814	0.53	0.418	0.381	0.473	0.499	0.387	0.345	0.427	1.1	0.855	0.469	0.605	0.534
PC-14	0.649	0.715	0.525	0.163	0.354	0.371	0.405	0.334	0.113	0.0718	0.555	0.727	0.281	0.053	0.0472	0.988	0.923	0.661	0.141	0.0894
NCI-H1437	0.457	0.456	0.377	0.354	0.251	1.24	1.09	0.6	0.198	0.154	0.577	0.376	0.19	0.205	0.234	1.02	0.898	0.507	0.21	0.18
NCI-H2170	0.619	0.745	0.309	0.193	0.26	0.889	0.765	0.306	0.146	0.166	0.96	0.885	0.246	0.159	0.153	1.01	0.907	0.473	0.202	0.197
NCI-H1648	0.455	0.371	0.157	0.235	0.182	0.699	0.721	0.637	0.25	0.214	0.488	0.419	0.295	0.293	0.251	1.04	0.919	0.404	0.241	0.181
LCLC-103H	0.395	0.457	0.33	0.252	0.217	0.75	0.876	0.707	0.375	0.242	0.675	0.643	0.565	0.452	0.268	1.02	1.12	0.915	0.442	0.224
NCI-H441	0.71	0.481	0.232	0.236	0.336	1.13	0.73	0.437	0.198	0.171	0.537	0.423	0.156	0.133	0.113	0.846	0.683	0.209	0.217	0.196
BEN	0.514	0.498	0.5	0.56	0.47	0.788	0.735	0.678	0.464	0.389	1.16	1.03	0.954	0.546	0.52	1.01	0.965	0.845	0.396	0.383
LC-2-ad	0.439	0.512	0.273	0.359	0.367	0.769	0.896	0.576	0.14	0.129	1.02	0.821	0.662	0.211	0.188	0.941	0.918	0.351	0.195	0.227
SW 900	0.685	0.661	0.277	0.253	0.244	0.575	0.538	0.565	0.279	0.156	0.639	0.778	0.649	0.433	0.124	0.91	0.827	0.638	0.275	0.176
NCI-H1915	0.499	0.515	0.352	0.166	0.142	0.709	0.862	0.597	0.161	0.097	0.227	0.172	0.24	0.117	0.0537	1.01	0.947	0.784	0.132	0.105
NCI-H647	0.0011	0.324	0.218	0.125	0.104	0.356	0.491	0.248	0.0314	0.026	0.544	0.388	0.279	0.0866	0.079	0.956	0.881	0.432	0.0899	0.0672
NCI-H2126	0.756	0.908	0.521	0.218	0.245	1.05	1.03	0.881	0.446	0.258	0.535	0.582	0.478	0.27	0.205	1.02	1	0.754	0.329	0.236
LXF-289	0.192	0.197	0.145	0.129	0.107	1.1	1	0.983	0.134	0.0617	0.685	0.551	0.491	0.142	0.0968	0.977	0.82	0.674	0.132	0.0998
HCC-44	0.983	0.903	0.242	0.346	0.199	1.03	1.04	0.991	0.549	0.375	0.977	0.935	0.874	0.387	0.225	0.985	1	0.871	0.204	0.211

Cell Line	relative viability ([1]; first compound 0.05 µM)	relative viability ([1]; first compound 0.1581 µM)	relative viability ([1]; first compound 0.5 µM)	relative viability ([1]; first compound 1.581 µM)	relative viability ([1]; first compound 5 µM)	relative viability ([2]; first compound 0.05 µM)	relative viability ([2]; first compound 0.1581 µM)	relative viability ([2]; first compound 0.5 µM)	relative viability ([2]; first compound 1.581 µM)	relative viability ([2]; first compound 5 µM)	relative viability ([3]; first compound 0.05 µM)	relative viability ([3]; first compound 0.1581 µM)	relative viability ([3]; first compound 0.5 µM)	relative viability ([3]; first compound 1.581 µM)	relative viability ([3]; first compound 5 µM)	relative viability ([4]; 0.05 µM)	relative viability ([4]; 0.1581 µM)	relative viability ([4]; 0.5 µM)	relative viability ([4]; 1.581 µM)	relative viability ([4]; 5 µM)
PC-3 [JPC-3]	0.892	0.856	0.4	0.33	0.369	0.833	0.741	0.597	0.238	0.252	0.697	0.698	0.536	0.407	0.279	1.06	0.985	0.636	0.303	0.296
HOP-62	0.361	0.334	0.241	0.175	0.201	0.523	0.714	0.316	0.118	0.0755	0.35	0.284	0.348	0.163	0.136	1.03	1.01	0.861	0.336	0.161
NCI-H358	0.0899	0.0976	0.118	0.0944	0.0929	0.541	0.493	0.419	0.193	0.14	0.146	0.114	0.104	0.116	0.096	0.908	1.03	0.475	0.166	0.164
NCI-H1666	0.569	0.507	0.388	0.343	0.39	0.84	0.881	0.8	0.555	0.483	0.837	0.776	0.653	0.455	0.41	0.971	0.907	0.74	0.451	0.449
NCI-H1355	0.515	0.635	0.302	0.202	0.135	0.793	0.747	0.456	0.163	0.137	0.274	0.403	0.326	0.176	0.127	0.974	0.957	0.534	0.197	0.185
HCC-827	0.411	0.397	0.37	0.344	0.313	0.229	0.246	0.185	0.201	0.161	0.479	0.421	0.473	0.428	0.453	1.04	0.986	0.901	0.541	0.341
HARA	0.091	0.117	0.117	0.111	0.0871	0.301	–	0.201	0.173	0.112	0.423	–	0.609	0.149	0.0917	1.01	0.853	0.8	0.176	0.0967
HCC-366	0.101	0.12	0.0568	0.0457	0.046	0.51	0.431	0.385	0.0175	0.0105	0.114	0.35	0.12	0.0256	0.0157	1.02	0.927	0.429	0.0311	0.0273
NCI-H322M	0.492	0.475	0.511	0.547	0.495	0.593	0.722	0.498	0.451	0.413	0.503	0.486	0.47	0.463	0.384	0.982	1.11	0.79	0.517	0.325
NCI-H2347	0.464	0.622	0.264	0.372	0.363	0.832	0.726	0.716	0.435	0.393	0.287	0.28	0.299	0.268	0.282	1.05	0.932	0.848	0.564	0.501
NCI-H1975	0.677	0.453	0.173	0.138	0.126	0.737	0.751	0.564	0.433	0.261	0.369	0.192	0.182	0.135	0.155	1.09	0.902	0.643	0.226	0.17
NCI-H596	0.867	0.843	0.705	0.383	0.359	1.1	1.14	0.943	0.664	0.413	0.469	0.695	0.802	0.439	0.297	0.946	1.04	0.756	0.406	0.284
NCI-H522	0.481	0.549	0.58	0.536	0.454	1.01	0.769	0.766	0.461	0.417	0.654	0.748	0.657	0.673	0.335	1.02	0.91	0.935	0.561	0.308
A-427	0.195	0.188	0.176	0.162	0.142	0.793	0.68	0.682	0.231	0.153	0.833	0.52	0.59	0.336	0.187	1.05	1	0.886	0.297	0.128
LCLC-97TM1	0.254	0.246	0.148	0.17	0.162	0.355	0.293	0.161	0.0896	0.0604	0.178	0.149	0.148	0.0713	0.0862	1.1	1.08	0.665	0.132	0.127
HCC-15	0.509	0.394	0.138	0.151	0.139	1.18	1.05	1.03	0.21	0.154	0.227	0.378	0.259	0.112	0.0946	0.944	0.964	0.437	0.157	0.122
